Where a SMILES comes first, the peptide text is derived from it. Bridges are numbered along the chain shown (N, C = ends). [ ]: non-standard residue; d: D form. The star is where a group is joined. X2 = CC[C@H](C)CCCCC(=O)*; Dab = NCC[C@H](N)C(=O)O
Key:
[1] = test system: E. coli ATCC 25922 (SEN) and E. coli NCTC13846 (MDR); assay: microbe, parasite or virus in culture; assay type: cell-based, Escherichia coli; conditions: for MIC: across three biological replicates
Protocol: This study focused on multiple bacterial strains, as follows. For the FoR and ALE experiments, 2 strains per species were chosen: E. coli ATCC 25922, K. pneumoniae ATCC 10031, A. baumannii ATCC 17978, and P. aeruginosa ATCC BAA-3107 as sensitive (SEN) strains, and E. coli NCTC13846, K. pneumoniae ATCC 700603, A. baumannii ATCC BAA-1605 and P. aeruginosa LESB58 as multi-drug resistant (MDR) strains. Functional metagenomic screens were performed with E. coli ATCC 25922 and K. pneumoniae ATCC 10031 strains. To determine the dose-kill properties of the different antibiotics, an E. coli strain (ATCC 25922) expressing a yellow fluorescent protein (pZS2R, YFP, CHL^R) and a red fluorescent protein (pZS2R, mCherry, CHL^R) was used.
Unless otherwise indicated, cation-adjusted Mueller-Hinton Broth 2 (MHB, Millipore) medium was used throughout the study, except for SCH79797 (SCH).
(§1) A robotic liquid handling system was used to automatically prepare a 11 to 16-step serial dilution in 384-well microtiter plates (Greiner). A final concentration of 5 × 10^5 bacterial cells per mL were inoculated into each well containing 60 µL MHB medium. Bacterial cultures were incubated at 37 °C with continuous shaking (Infors shaker, 900 rpm with 3 mm throw) for 18 hours (2 replicates from each). Cell growth was monitored by measuring the optical density (OD600 values, using Biotek Synergy microplate reader). MIC was defined as the antibiotic concentration of complete growth inhibition (i.e., OD600 < 0.05). Relative MIC was calculated as follows:1 relativeMIC=MICevolved/MICancestor

[2] = test system: E. coli ATCC 25922 (SEN) and E. coli NCTC13846 (MDR); assay: Frequency-of-resistance (FoR) assay, relative MIC of mutants; assay type: cell-based, Escherichia coli; conditions: for MIC: Escherichia coli
Protocol: The susceptibility of antibiotics to resistance development was evaluated in two strains of each bacterial species: a multidrug-resistant strain and an antibiotic-sensitive strain of Escherichia coli, Klebsiella pneumoniae, Acinetobacter baumannii, and Pseudomonas aeruginosa. To explore first-step resistance, we previously used a standard protocol for spontaneous frequency-of-resistance analysis (FoR assay) at multiple concentrations of each antibiotic[10],[28],[31]–[33]. […] For all other combinations, approximately 10^10 bacterial cells were exposed to one of each antibiotic on agar plates for two days at concentrations where the given strain is susceptible. We examined resistance levels by contrasting the minimum inhibitory concentration (MICs) of the mutated strains to the original wild-type bacterial strain (i.e., relative MIC).
To estimate the frequency of spontaneous mutations that confer resistance in a microbial population, we conducted a frequency of resistance (FoR) assay following established protocols[10],[31]–[33]. […] Prior to plating, bacteria were grown overnight in MHB medium at 37 °C and 250 RPM, then centrifuged and washed in MHB. All experiments were performed in triplicate, and plates were incubated at 37 °C for 48 hours. Total colony-forming units (CFUs) were determined by plating appropriate dilutions onto antibiotic-free MHB agar. Resistance frequencies were calculated by dividing the number of resistant colonies by the initial viable cell count. From the plates with the highest antibiotic concentration, ten colonies were selected for MIC determination and whole-genome sequencing.
as §1, with “relativeMIC=MICevolved/MICancestor […]” for “relativeMIC=MICevolved/MICancestor”
Supplementary Figure 3. Resistance levels following the frequency of resistance assay across bacterial strains. The level of resistance was measured as the fold change in relative MIC between evolved and ancestral strains. Data are grouped by bacterial strain (A. baumannii (AB), E. coli (EC), K. pneumoniae (KP), and P. aeruginosa (PA)) and categorized as either multidrug-resistant (MDR) or sensitive (SEN). Each data point represents a laboratory evolved line, and boxplots show the median, first and third quartiles, with whiskers indicating the 5th and 95th percentiles. […]
analysis was performed using two-sided Dunn’s post-hoc test with Benjamini-Hochberg correction for multiple comparisons (**/ * indicates p < 0.01/ 0.05). For detailed information on antibiotic and bacterial species, see Supplementary Table 1. For mode of action groups, refer to Table 1. Source data are provided as a Source Data file.

[3] = Escherichia coli, Escherichia coli ATCC 25922 (EC-SEN)
[4] = Escherichia coli, Escherichia coli NCTC 13846 (EC-MDR)
[5] = Escherichia coli ATCC 25922 (EC-SEN), ancestor strain
[6] = Escherichia coli ATCC 25922 (EC-SEN), ancestor strain, sheet fig 2a
[7] = Escherichia coli ATCC 25922 (EC-SEN), evolved line 1 versus ancestor
[8] = Escherichia coli ATCC 25922 (EC-SEN), evolved line 2 versus ancestor
[9] = Escherichia coli ATCC 25922 (EC-SEN), evolved line 3 versus ancestor
[10] = read-out: MIC of evolved line, Escherichia coli ATCC 25922 (EC-SEN), evolved line 1
[11] = read-out: MIC of evolved line, Escherichia coli ATCC 25922 (EC-SEN), evolved line 2
[12] = read-out: MIC of evolved line, Escherichia coli ATCC 25922 (EC-SEN), evolved line 3
[13] = E. coli NCTC 13846 (EC-MDR), ancestor strain, sheet fig 2a
[14] = EC-SEN, Escherichia coli ATCC 25922, ancestor strain
[15] = E. coli NCTC 13846 (EC-MDR), evolved line 1, evolved vs ancestor
[16] = E. coli NCTC 13846 (EC-MDR), evolved line 2, evolved vs ancestor
[17] = E. coli NCTC 13846 (EC-MDR), evolved line 3, evolved vs ancestor
[18] = read-out: MIC of evolved line, E. coli NCTC 13846 (EC-MDR), evolved line 1
[19] = read-out: MIC of evolved line, E. coli NCTC 13846 (EC-MDR), evolved line 3
[20] = EC-MDR, Escherichia coli NCTC 13846, ancestor strain
[21] = read-out: MIC of evolved line, E. coli NCTC 13846 (EC-MDR), evolved line 2
[22] = Escherichia coli ATCC 25922 (EC-SEN), ancestor
[23] = Escherichia coli ATCC 25922 (EC-SEN)
[24] = Escherichia coli NCTC 13846 (EC-MDR)

| Molecule | MIC [1, 3] | MIC [1, 4] | MIC of ancestor [1, 6] | Relative MIC [2, 7] | Relative MIC [2, 8] | Relative MIC [2, 9] | MIC [2, 10] | MIC [2, 11] | MIC [2, 12] | MIC of ancestor [1, 13] | MIC of ancestor [1, 14] | also measured |
| --- | --- | --- | --- | --- | --- | --- | --- | --- | --- | --- | --- | --- |
| CN[C@@H]1[C@@H](O[C@H]2O[C@H](CO)[C@@H](N)[C@H](O)[C@H]2O)OC2C[C@@H](N)[C@@H](O[C@H]3[C@H](O)[C@@H](O)[C@H](N)C[C@@H]3N)OC2[C@@H]1O (some centres unmarked) [Apramycin] | 16 µg/mL | 8 µg/mL |  |  |  |  |  |  |  |  |  |  |
| Nc1nc(-n2cc(C(=O)O)c(=O)c3cc(F)c(N4CC(O)C4)c(Cl)c32)c(F)cc1F [Delafloxacin] | 0.0312 µg/mL | 16 µg/mL | 0.0312 µg/mL | 1 | 1 | 1 |  |  |  |  |  | MIC of ancestor [1, 5]: 0.0312 µg/mL |
| C[C@H]1c2cccc(O)c2C(=O)C2=C(O)[C@]3(O)C(=O)C(C(N)=O)=C(O)[C@@H](N(C)C)[C@@H]3[C@@H](O)[C@@H]21 [Doxycycline] | 1 µg/mL | 16 µg/mL | 1 µg/mL | 2 | 4 | 2 | 2 µg/mL | 4 µg/mL | 2 µg/mL |  |  | MIC of ancestor [1, 5]: 1 µg/mL |
| CN(C)[C@@H]1C(O)=C(C(N)=O)C(=O)[C@@]2(O)C(O)=C3C(=O)c4c(O)c(NC(=O)CN5CCCC5)cc(F)c4C[C@H]3C[C@@H]12 [Eravacycline] | 0.125 µg/mL | 1 µg/mL | 0.125 µg/mL | 2 | 1 | 2 | 0.25 µg/mL | 0.125 µg/mL | 0.25 µg/mL | 1 µg/mL | 0.125 µg/mL | MIC of ancestor ([1]; Escherichia coli NCTC 13846 (EC-MDR), ancestor strain): 1 µg/mL; Relative MIC [2, 15]: 2; Relative MIC [2, 16]: 1; Relative MIC [2, 17]: 2; MIC [2, 18]: 2 µg/mL; MIC [2, 19]: 2 µg/mL |
| CNC(C)C1CCC(N)C(OC2C(N)CC(N)C(OC3OCC(C)(O)C(NC)C3O)C2O)O1 (centres unmarked) [Gentamicin] | 1 µg/mL | 1 µg/mL | 1 µg/mL | 16 | 16 | 8 | 16 µg/mL | 16 µg/mL | 8 µg/mL | 1 µg/mL | 1 µg/mL | MIC of ancestor [1, 20]: 1 µg/mL; Relative MIC [2, 15]: 8; Relative MIC [2, 16]: 4; Relative MIC [2, 17]: 4; MIC [2, 18]: 8 µg/mL; MIC [2, 21]: 4 µg/mL; MIC [2, 19]: 4 µg/mL |
| O=c1ccc2ncc(=O)n3c2n1C[C@H]3CN1CCC(NCc2cc3c(cn2)OCCC3)CC1 [Gepotidacin] | 1 µg/mL | 2 µg/mL | 1 µg/mL | 1 | 1 | 1 |  |  |  | 2 µg/mL | 1 µg/mL | MIC of ancestor [1, 20]: 2 µg/mL; Relative MIC [2, 15]: 1; Relative MIC [2, 16]: 1; Relative MIC [2, 17]: 1 |
| C[C@@H](O)[C@H]1C(=O)N2C(C(=O)O)=C(S[C@@H]3CN[C@H](C(=O)N(C)C)C3)[C@H](C)[C@H]12 [Meropenem] | 0.0312 µg/mL | < 0.0312 µg/mL | 0.0312 µg/mL |  |  |  | 0.0156 µg/mL | 0.0156 µg/mL | 0.0156 µg/mL | 0.0156 µg/mL | 0.0312 µg/mL | MIC of ancestor [1, 20]: 0.0156 µg/mL; MIC [2, 21]: 0.0156 µg/mL |
| COc1c(N2C[C@@H]3CCCN[C@@H]3C2)c(F)cc2c(=O)c(C(=O)O)cn(C3CC3)c12 [Moxifloxacin] | 0.0312 µg/mL | > 32 µg/mL | 0.0312 µg/mL |  |  |  |  |  |  |  |  | MIC of ancestor [1, 22]: 0.0312 µg/mL |
| CN(C)c1cc(CNCC(C)(C)C)c(O)c2c1C[C@H]1C[C@H]3[C@H](N(C)C)C(O)=C(C(N)=O)C(=O)[C@@]3(O)C(O)=C1C2=O [Omadacycline] | 2 µg/mL | 16 µg/mL | 2 µg/mL | 2 | 2 | 2 | 4 µg/mL | 4 µg/mL | 4 µg/mL |  |  | MIC of ancestor [1, 22]: 2 µg/mL |
| CC[C@H](C)CCCCC(=O)N[C@@H](CCN)C(=O)N[C@H](C(=O)N[C@@H](CCN)C(=O)N[C@H]1CCNC(=O)[C@H]([C@@H](C)O)NC(=O)[C@H](CCN)NC(=O)[C@H](CCN)NC(=O)[C@H](CC(C)C)NC(=O)[C@@H](Cc2ccccc2)NC(=O)[C@H](CCN)NC1=O)[C@@H](C)O [Polymyxin B] (X2-[Dab]T[Dab][Dab][Dab][dF]L[Dab][Dab]T; lactam 4-C (inferred); N-terminus assumed) |  |  |  |  |  |  |  |  |  |  |  | MIC [1, 23]: 1 µg/mL; MIC [1, 24]: 4 µg/mL |
| CC(C)c1ccc(Cn2ccc3c4c(N)nc(NC5CC5)nc4ccc32)cc1 [SCH79797] |  |  |  |  |  |  |  |  |  |  |  | MIC of ancestor ([1]; E. coli ATCC 25922 (EC-SEN), ancestor strain, sheet fig 2a): 4 µg/mL; MIC [1, 23]: 4 µg/mL; MIC [1, 24]: 16 µg/mL; MIC of ancestor ([1]; ancestor EC-SEN (Escherichia coli ATCC 25922)): 4 µg/mL; MIC of evolved line ([2]; E. coli ATCC 25922 (EC-SEN), evolved line 1): 8 µg/mL; Relative MIC ([2]; E. coli ATCC 25922 (EC-SEN), evolved line 1, evolved vs ancestor): 2; MIC of evolved line ([2]; E. coli ATCC 25922 (EC-SEN), evolved line 2): 8 µg/mL; Relative MIC ([2]; E. coli ATCC 25922 (EC-SEN), evolved line 2, evolved vs ancestor): 2; MIC of evolved line ([2]; E. coli ATCC 25922 (EC-SEN), evolved line 3): 8 µg/mL; Relative MIC ([2]; E. coli ATCC 25922 (EC-SEN), evolved line 3, evolved vs ancestor): 2; Relative MIC ([2]; FoR assay, Escherichia coli ATCC 25922 (EC-SEN), evolved line 1): 2; Relative MIC ([2]; FoR assay, Escherichia coli ATCC 25922 (EC-SEN), evolved line 2): 2; Relative MIC ([2]; FoR assay, Escherichia coli ATCC 25922 (EC-SEN), evolved line 3): 2 |
| POL7306 |  |  |  |  |  |  |  |  |  |  |  | MIC [1, 23]: 1 µg/mL; MIC [1, 24]: 4 µg/mL |

Reference: paper PMC11845477, “Exploring the principles behind antibiotics with limited resistance” (Nature Communications, 2025)
